In patent US6685617B1, “Inhibitors of α4β1 mediated cell adhesion” (Pharmacia & Upjohn Company, priority 1998, dated 2004):

Assays:
[1] = target: T1, α4β1 integrin (Jurkat T-cell adhesion to IL-1 stimulated endothelial cell monolayers) (Homo sapiens, UniProt P05556+P13612); assay: Jurkat-endothelial cell adhesion assay (Jurkat EC); format: cell-based; settings: Jurkat cells on IL-1 stimulated human umbilical vein endothelial cells; read-out: JK/EC (Jurkat EC Assay IC50 value range)
T1 construct: a T-cell line, Jurkat, known to express the α4β1 integrin; host or cells: Jurkat T-cell line
T1 sequence (P13612 34-1032): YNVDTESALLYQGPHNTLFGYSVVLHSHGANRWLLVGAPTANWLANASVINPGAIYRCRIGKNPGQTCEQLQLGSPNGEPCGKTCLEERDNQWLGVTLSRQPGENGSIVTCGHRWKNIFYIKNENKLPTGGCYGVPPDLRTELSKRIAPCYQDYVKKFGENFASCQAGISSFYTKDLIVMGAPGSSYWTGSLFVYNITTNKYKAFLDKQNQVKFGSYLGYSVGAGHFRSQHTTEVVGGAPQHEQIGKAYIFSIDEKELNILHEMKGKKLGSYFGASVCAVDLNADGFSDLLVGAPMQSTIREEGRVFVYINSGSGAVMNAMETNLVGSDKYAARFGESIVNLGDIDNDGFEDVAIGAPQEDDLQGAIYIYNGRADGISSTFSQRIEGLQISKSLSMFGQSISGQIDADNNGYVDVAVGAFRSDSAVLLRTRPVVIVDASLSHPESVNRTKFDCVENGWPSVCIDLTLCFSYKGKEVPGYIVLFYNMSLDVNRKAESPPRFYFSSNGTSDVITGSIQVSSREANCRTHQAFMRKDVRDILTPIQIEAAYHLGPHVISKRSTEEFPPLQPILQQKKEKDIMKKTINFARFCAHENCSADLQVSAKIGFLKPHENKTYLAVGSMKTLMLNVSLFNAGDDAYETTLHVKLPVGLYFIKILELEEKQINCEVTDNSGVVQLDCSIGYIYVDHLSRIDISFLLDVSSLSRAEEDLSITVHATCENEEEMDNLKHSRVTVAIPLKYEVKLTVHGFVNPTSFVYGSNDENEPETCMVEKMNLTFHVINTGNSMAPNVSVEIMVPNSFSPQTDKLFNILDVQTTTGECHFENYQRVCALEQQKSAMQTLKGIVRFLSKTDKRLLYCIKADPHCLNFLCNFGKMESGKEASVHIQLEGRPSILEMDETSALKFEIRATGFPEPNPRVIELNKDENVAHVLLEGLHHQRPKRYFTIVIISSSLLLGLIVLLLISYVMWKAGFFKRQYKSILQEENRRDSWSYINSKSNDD
T1 sequence (P05556 21-798): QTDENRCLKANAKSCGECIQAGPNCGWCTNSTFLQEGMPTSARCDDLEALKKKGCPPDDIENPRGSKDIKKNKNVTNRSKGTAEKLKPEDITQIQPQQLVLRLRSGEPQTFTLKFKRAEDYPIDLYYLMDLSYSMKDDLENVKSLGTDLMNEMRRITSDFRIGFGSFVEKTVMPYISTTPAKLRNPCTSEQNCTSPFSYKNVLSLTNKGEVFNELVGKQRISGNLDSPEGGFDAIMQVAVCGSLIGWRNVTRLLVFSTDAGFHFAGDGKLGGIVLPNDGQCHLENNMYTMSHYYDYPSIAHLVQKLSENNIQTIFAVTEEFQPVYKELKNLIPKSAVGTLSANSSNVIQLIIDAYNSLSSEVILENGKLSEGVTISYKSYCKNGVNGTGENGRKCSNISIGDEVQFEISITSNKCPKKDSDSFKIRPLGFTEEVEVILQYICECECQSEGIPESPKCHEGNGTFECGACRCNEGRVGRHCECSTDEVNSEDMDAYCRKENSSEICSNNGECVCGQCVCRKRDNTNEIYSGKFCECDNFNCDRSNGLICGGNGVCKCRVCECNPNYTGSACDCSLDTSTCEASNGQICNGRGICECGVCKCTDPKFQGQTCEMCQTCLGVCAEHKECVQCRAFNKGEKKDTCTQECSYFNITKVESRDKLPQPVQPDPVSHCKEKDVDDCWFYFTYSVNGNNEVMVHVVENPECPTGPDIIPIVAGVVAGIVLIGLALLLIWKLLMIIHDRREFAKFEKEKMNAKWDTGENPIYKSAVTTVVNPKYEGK
Procedure, shortened: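 Adhesion was expressed as percent of compound-free fluorescence after 20 min at 37° C (following 5 min settling on ice) of BCECF-loaded Jurkat T cells on washed HUVEC monolayers. The endothelium, passage 6 or lower, had received 0.1 ng/ml recombinant IL-1 for 4 hr at 37° C; compound was premixed with the T cells, typically at 100, 20, 5 and 1.25 μM.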

[2] = target: T2, α4β1 integrin (Jurkat cell adhesion to immobilized CS-1 derived peptide CLHPGEILDVPST) (Homo sapiens, UniProt P05556+P13612); assay: Jurkat-CS-1 assay; format: cell-based; settings: Jurkat cells on CS-1 peptide coated plates; read-out: JK/CS-1 (Jurkat CS-1 Assay IC50 value range)
T2 construct: 100 μl of Jurkat cells (2.5×10^6 cells/ml) in DMEM plus BSA; host or cells: Jurkat T-cell line
T2 sequence (P13612 34-1032): as the sequence (P13612 34-1032) above
T2 sequence (P05556 21-798): as the sequence (P05556 21-798) above
Procedure, shortened: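 CS-1 peptide was SPDP-crosslinked onto HSA-coated plates and blocked with BSA. Jurkat cells (2.5×10^6 cells/ml) in DMEM/BSA were mixed with compound, generally at 100, 20, 5 and 1.25 μM, and allowed to adhere for 1 hr at 37° C. Bound cells were fixed, stained with toluidine blue and quantified by OD590.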

| SMILES | IC50 [1] [nM] | IC50 [2] [nM] |
| --- | --- | --- |
| O=C(O)CC1(CC(=O)N2CCCC(C(=O)N[C@@H](Cc3ccc(NC(=O)c4c(Cl)cccc4Cl)cc3)C(=O)O)C2)CCCC1 (some centres unmarked) [Example 195] | ≥ 1000 | 50 to 750 |
| CC(C)(CC(=O)O)CC(=O)N1CCCC(C(=O)N[C@@H](Cc2ccc(NC(=O)c3c(Cl)cccc3Cl)cc2)C(=O)O)C1 (some centres unmarked) [Example 196] | ≥ 1000 | 50 to 750 |
| O=C(O)/C=C\C(=O)N1CCCC(C(=O)N[C@@H](Cc2ccc(NC(=O)c3c(Cl)cccc3Cl)cc2)C(=O)O)C1 (some centres unmarked) [Example 197] | ≥ 1000 | ≥ 750 |
| O=C(Nc1ccc(C[C@H](NC(=O)C2CCCN(C(=O)C3CCCC(C(=O)O)C3)C2)C(=O)O)cc1)c1c(Cl)cccc1Cl (some centres unmarked) [Example 200] | ≥ 1000 | 50 to 750 |
| CC(=O)CCC(=O)N1CCCC(C(=O)N[C@@H](Cc2ccc(NC(=O)c3c(Cl)cccc3Cl)cc2)C(=O)O)C1 (some centres unmarked) [Example 201] | ≥ 1000 | 50 to 750 |
| COc1ccc(C(=O)N2CCCC(C(=O)N[C@@H](Cc3ccc(NC(=O)c4c(Cl)cccc4Cl)cc3)C(=O)O)C2)cc1OC (some centres unmarked) [Example 203] | ≥ 1000 | 50 to 750 |
| O=C(O)c1ccccc1C(=O)N1CCCC(C(=O)N[C@@H](Cc2ccc(NC(=O)c3c(Cl)cccc3Cl)cc2)C(=O)O)C1 (some centres unmarked) [Example 204] | 250 to 1000 | 50 to 750 |
| O=C(O)c1ccc2cc(C(=O)N3CCCC(C(=O)N[C@@H](Cc4ccc(NC(=O)c5c(Cl)cccc5Cl)cc4)C(=O)O)C3)ccc2c1 (some centres unmarked) [Example 206] | 250 to 1000 | 50 to 750 |
| O=C(O)c1cncc(C(=O)N2CCCC(C(=O)N[C@@H](Cc3ccc(NC(=O)c4c(Cl)cccc4Cl)cc3)C(=O)O)C2)c1 (some centres unmarked) [Example 207] | ≥ 1000 | 50 to 750 |
| CC(=O)CCC(=O)N1CCC(C(=O)N[C@@H](Cc2ccc(NC(=O)c3c(Cl)cccc3Cl)cc2)C(=O)O)CC1 [Example 216] | ≥ 1000 | 50 to 750 |
| O=C(O)c1cccc(C(=O)N2CCC(C(=O)N[C@@H](Cc3ccc(NC(=O)c4c(Cl)cccc4Cl)cc3)C(=O)O)CC2)c1 [Example 220] | ≥ 1000 | 50 to 750 |
| O=C(O)c1cncc(C(=O)N2CCC(C(=O)N[C@@H](Cc3ccc(NC(=O)c4c(Cl)cccc4Cl)cc3)C(=O)O)CC2)c1 [Example 222] | ≥ 1000 | 50 to 750 |
| O=C(O)CCC(=O)N1CCC[C@H]1C(=O)N[C@@H](Cc1ccc(NC(=O)c2c(Cl)cccc2Cl)cc1)C(=O)O [Example 224] | ≥ 1000 | 50 to 750 |
| O=C(O)CC1(CC(=O)N2CCC[C@H]2C(=O)N[C@@H](Cc2ccc(NC(=O)c3c(Cl)cccc3Cl)cc2)C(=O)O)CCCC1 [Example 225] | ≥ 1000 | 50 to 750 |
| CC(C)(CC(=O)O)CC(=O)N1CCC[C@H]1C(=O)N[C@@H](Cc1ccc(NC(=O)c2c(Cl)cccc2Cl)cc1)C(=O)O [Example 226] | ≥ 1000 | 50 to 750 |
| O=C(O)/C=C\C(=O)N1CCC[C@H]1C(=O)N[C@@H](Cc1ccc(NC(=O)c2c(Cl)cccc2Cl)cc1)C(=O)O [Example 227] | ≥ 1000 | 50 to 750 |
| O=C(O)/C=C/C(=O)N1CCC[C@H]1C(=O)N[C@@H](Cc1ccc(NC(=O)c2c(Cl)cccc2Cl)cc1)C(=O)O [Example 228] | ≥ 1000 | 50 to 750 |
| COCCC(=O)N1CCC[C@H]1C(=O)N[C@@H](Cc1ccc(NC(=O)c2c(Cl)cccc2Cl)cc1)C(=O)O [Example 229] | ≥ 1000 | 50 to 750 |
| O=C(Nc1ccc(C[C@H](NC(=O)[C@@H]2CCCN2C(=O)C2CCCC(C(=O)O)C2)C(=O)O)cc1)c1c(Cl)cccc1Cl (some centres unmarked) [Example 230] | ≥ 1000 | 50 to 750 |
| CC(=O)CCC(=O)N1CCC[C@H]1C(=O)N[C@@H](Cc1ccc(NC(=O)c2c(Cl)cccc2Cl)cc1)C(=O)O [Example 231] | ≥ 1000 | 50 to 750 |
| O=C(O)CNC(=O)N1CCC[C@H]1C(=O)N[C@@H](Cc1ccc(NC(=O)c2c(Cl)cccc2Cl)cc1)C(=O)O [Example 232] | ≥ 1000 | ≥ 750 |
| COc1ccc(C(=O)N2CCC[C@H]2C(=O)N[C@@H](Cc2ccc(NC(=O)c3c(Cl)cccc3Cl)cc2)C(=O)O)cc1OC [Example 233] | ≥ 1000 | 50 to 750 |
| O=C(O)c1ccccc1C(=O)N1CCC[C@H]1C(=O)N[C@@H](Cc1ccc(NC(=O)c2c(Cl)cccc2Cl)cc1)C(=O)O [Example 234] | ≥ 1000 | 50 to 750 |
| O=C(O)c1cccc(C(=O)N2CCC[C@H]2C(=O)N[C@@H](Cc2ccc(NC(=O)c3c(Cl)cccc3Cl)cc2)C(=O)O)c1 [Example 235] | ≥ 1000 | 50 to 750 |
| O=C(O)c1ccc2cc(C(=O)N3CCC[C@H]3C(=O)N[C@@H](Cc3ccc(NC(=O)c4c(Cl)cccc4Cl)cc3)C(=O)O)ccc2c1 [Example 236] | ≥ 1000 | ≥ 750 |

| SMILES | IC50 [1] [nM] | IC50 [2] [nM] |
| --- | --- | --- |
| O=C(O)c1cncc(C(=O)N2CCC[C@H]2C(=O)N[C@@H](Cc2ccc(NC(=O)c3c(Cl)cccc3Cl)cc2)C(=O)O)c1 [Example 237] | ≥ 1000 | 50 to 750 |
| O=C(O)c1ccc(NC(=O)N2CCC[C@H]2C(=O)N[C@@H](Cc2ccc(NC(=O)c3c(Cl)cccc3Cl)cc2)C(=O)O)cc1 [Example 238] | ≥ 1000 | 50 to 750 |
| O=C(Nc1ccc(C[C@H](NC(=O)[C@@H]2CSCN2C(=O)c2cccnc2)C(=O)O)cc1)c1c(Cl)cccc1Cl [Example 239] | ≥ 1000 | 50 to 750 |
| O=C(O)c1cccc(C(=O)N2CSC[C@H]2C(=O)N[C@@H](Cc2ccc(NC(=O)c3c(Cl)cccc3Cl)cc2)C(=O)O)n1 [Example 240] | ≥ 1000 | 50 to 750 |
| O=C(O)c1ccc(C(=O)N2CSC[C@H]2C(=O)N[C@@H](Cc2ccc(NC(=O)c3c(Cl)cccc3Cl)cc2)C(=O)O)nc1 [Example 241] | ≥ 1000 | 50 to 750 |
| O=C(Nc1ccc(C[C@H](NC(=O)[C@@H]2CSCN2C(=O)c2cc(O)c3ccccc3n2)C(=O)O)cc1)c1c(Cl)cccc1Cl [Example 242] | ≥ 1000 | 50 to 750 |
| O=C(O)c1cc(C(=O)N2CSC[C@H]2C(=O)N[C@@H](Cc2ccc(NC(=O)c3c(Cl)cccc3Cl)cc2)C(=O)O)n[nH]1 [Example 243] | 250 to 1000 | 50 to 750 |
| O=C(Nc1ccc(C[C@H](NC(=O)[C@@H]2CSCN2C(=O)C2NC(C(=O)O)CS2)C(=O)O)cc1)c1c(Cl)cccc1Cl (some centres unmarked) [Example 244] | 250 to 1000 | 50 to 750 |
| O=C(Nc1ccc(C[C@H](NC(=O)[C@@H]2CSCN2C(=O)C2CCCO2)C(=O)O)cc1)c1c(Cl)cccc1Cl (some centres unmarked) [Example 245] | ≤ 250 | 50 to 750 |
| O=C(Nc1ccc(C[C@H](NC(=O)[C@@H]2CSCN2C(=O)C2CCOC2)C(=O)O)cc1)c1c(Cl)cccc1Cl (some centres unmarked) [Example 246] | 250 to 1000 | 50 to 750 |
| O=C(O)/C=C/C(=O)N1CCCC[C@@H]1C(=O)N[C@@H](Cc1ccc(NC(=O)c2c(Cl)cccc2Cl)cc1)C(=O)O [Example 248] | 250 to 1000 | 50 to 750 |
| COCCC(=O)N1CCCC[C@@H]1C(=O)N[C@@H](Cc1ccc(NC(=O)c2c(Cl)cccc2Cl)cc1)C(=O)O [Example 249] | 250 to 1000 | 50 to 750 |
| O=C(O)c1cccc(C(=O)N2CCCC[C@@H]2C(=O)N[C@@H](Cc2ccc(NC(=O)c3c(Cl)cccc3Cl)cc2)C(=O)O)n1 [Example 251] | ≤ 250 | ≤ 50 |
| O=C(Nc1ccc(C[C@H](NC(=O)[C@H]2CCCCN2C(=O)c2cccnc2)C(=O)O)cc1)c1c(Cl)cccc1Cl [Example 252] | ≤ 250 | ≤ 50 |
| O=C(Nc1ccc(C[C@H](NC(=O)[C@H]2CCCCN2C(=O)C2CCCO2)C(=O)O)cc1)c1c(Cl)cccc1Cl (some centres unmarked) [Example 253] | ≤ 250 | 50 to 750 |
| O=C(O)CCC(=O)N1CCC[C@@H]1C(=O)N[C@@H](Cc1ccc(NC(=O)c2c(Cl)cccc2Cl)cc1)C(=O)O [Example 254] | 250 to 1000 | 50 to 750 |
| O=C(O)/C=C/C(=O)N1CCC[C@@H]1C(=O)N[C@@H](Cc1ccc(NC(=O)c2c(Cl)cccc2Cl)cc1)C(=O)O [Example 255] | ≥ 1000 | 50 to 750 |
| COCCC(=O)N1CCC[C@@H]1C(=O)N[C@@H](Cc1ccc(NC(=O)c2c(Cl)cccc2Cl)cc1)C(=O)O [Example 256] | ≤ 250 | ≤ 50 |
| O=C(O)c1cncc(C(=O)N2CCC[C@@H]2C(=O)N[C@@H](Cc2ccc(NC(=O)c3c(Cl)cccc3Cl)cc2)C(=O)O)c1 [Example 257] | 250 to 1000 | 50 to 750 |
| O=C(O)c1cccc(C(=O)N2CCC[C@@H]2C(=O)N[C@@H](Cc2ccc(NC(=O)c3c(Cl)cccc3Cl)cc2)C(=O)O)n1 [Example 258] | ≤ 250 | ≤ 50 |
| O=C(Nc1ccc(C[C@H](NC(=O)[C@H]2CCCN2C(=O)c2cccnc2)C(=O)O)cc1)c1c(Cl)cccc1Cl [Example 259] | ≤ 250 | 50 to 750 |
| O=C(Nc1ccc(C[C@H](NC(=O)[C@H]2CCCN2C(=O)C2CCCO2)C(=O)O)cc1)c1c(Cl)cccc1Cl (some centres unmarked) [Example 260] | 250 to 1000 | 50 to 750 |
| O=C(O)/C=C/C(=O)N1CSC[C@@H]1C(=O)N[C@@H](Cc1ccc(NC(=O)c2c(Cl)cccc2Cl)cc1)C(=O)O [Example 261] | 250 to 1000 | 50 to 750 |
| COCCC(=O)N1CSC[C@@H]1C(=O)N[C@@H](Cc1ccc(NC(=O)c2c(Cl)cccc2Cl)cc1)C(=O)O [Example 262] | ≤ 250 | ≤ 50 |
